± gives the standard deviation of the averaged measurements.
Assays:
Assay in all cases: relative viability vs DMSO control (72 h) (fraction); higher = more viable cells
RD-ES = tested on: RD-ES
Outline: (§1)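 Sarcoma cell lines were plated in 384 wells to reach 80–90% confluence, treated after 24 h with 2.5 µl of serially diluted compound and held 72 h at 37 °C, 5% CO2. Relative viability was taken as percent growth from ATPLite readings, averaged over up to triplicate wells. The values were rescaled so that 1 marks full and 0 marks none.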

HT1080 = tested on: HT1080
Outline: as §1

RD = tested on: RD
Outline: as §1

VA-ES-BJ = tested on: VA-ES-BJ
Outline: as §1

KHOS-NP = tested on: KHOS-NP
Outline: as §1

Cc1cc(Nc2ncc(Cl)c(Nc3ccccc3S(=O)(=O)C(C)C)n2)c(OC(C)C)cc1C1CCNCC1 [Ceritinib]
relative viability
Details	HT1080	KHOS-NP	RD	RD-ES	VA-ES-BJ
0.00017 µM	1.02 ± 0.092	1.04 ± 0.021	0.996 ± 0.055	0.94 ± 0.033	1.05 ± 0.036
0.00051 µM	1.01 ± 0.065	1.04 ± 0.01	1.02 ± 0.032	0.938 ± 0.063	1.04 ± 0.035
0.00152 µM	1.02 ± 0.026	1.04 ± 0.027	1.04 ± 0.05	0.955 ± 0.053	1.04 ± 0.033
0.00457 µM	1.04 ± 0.035	1.06 ± 0.032	0.996 ± 0.039	0.957 ± 0.026	1.05 ± 0.024
0.01372 µM	1.02 ± 0.019	1.06 ± 0.029	1.03 ± 0.036	0.955 ± 0.057	1.06 ± 0.012
0.04115 µM	1.06 ± 0.017	1.05 ± 0.0023	1.02 ± 0.071	0.943 ± 0.054	1.03 ± 0.015
0.1235 µM	1.04 ± 0.046	1.05 ± 0.019	0.947 ± 0.034	0.89 ± 0.032	1.02 ± 0.037
0.3704 µM	1.03 ± 0.048	1.02 ± 0.03	0.771 ± 0.052	0.681 ± 0.044	0.975 ± 0.018
1.111 µM	0.983 ± 0.029	1.02 ± 0.044	0.576 ± 0.045	0.454 ± 0.022	0.954 ± 0.054
3.333 µM	0.777 ± 0.033	0.95 ± 0.056	0.381 ± 0.031	0.304 ± 0.032	0.929 ± 0.035
10 µM	-0.000267 ± 0.00081	0.0055 ± 0.00096	0.001 ± 0.00044	0.00243 ± 0.00094	-0.008 ± 0.0015

C[C@@H](Oc1cc(-c2cnn(C3CCNCC3)c2)cnc1N)c1c(Cl)ccc(F)c1Cl [Crizotinib]
relative viability
Details	HT1080	KHOS-NP	RD	RD-ES	VA-ES-BJ
0.00017 µM	1.07 ± 0.017	1.11 ± 0.013	1.08 ± 0.014	0.969 ± 0.053	1.06 ± 0.03
0.00051 µM	1.05 ± 0.011	1.107 ± 0.0066	1.07 ± 0.015	0.96 ± 0.043	1.05 ± 0.038
0.00152 µM	1.07 ± 0.013	1.09 ± 0.028	1.106 ± 0.011	0.963 ± 0.048	1.06 ± 0.023
0.00457 µM	1.09 ± 0.03	1.11 ± 0.019	1.09 ± 0.065	0.95 ± 0.036	1.06 ± 0.051
0.01372 µM	1.07 ± 0.043	1.1 ± 0.038	1.1 ± 0.044	0.963 ± 0.051	1.04 ± 0.064
0.04115 µM	1.07 ± 0.046	1.1 ± 0.021	1.1 ± 0.032	0.972 ± 0.031	0.975 ± 0.044
0.1235 µM	1.06 ± 0.032	1.103 ± 0.0073	1.09 ± 0.038	0.911 ± 0.058	0.899 ± 0.042
0.3704 µM	1.07 ± 0.074	1.103 ± 0.011	0.88 ± 0.022	0.745 ± 0.047	0.764 ± 0.022
1.111 µM	1.01 ± 0.026	1.08 ± 0.043	0.626 ± 0.022	0.26 ± 0.018	0.641 ± 0.03
3.333 µM	0.754 ± 0.032	0.974 ± 0.033	0.441 ± 0.03	0.0918 ± 0.0075	0.505 ± 0.14
10 µM	0.00533 ± 0.0018	0.0806 ± 0.0086	0.00437 ± 0.0011	0.00543 ± 0.00081	0.00337 ± 0.0035

COc1cc2ncnc(Nc3ccc(F)c(Cl)c3)c2cc1NC(=O)/C=C/CN1CCCCC1 [Dacomitinib]
relative viability
Details	HT1080	KHOS-NP	RD	RD-ES	VA-ES-BJ
0.00017 µM	1.12 ± 0.029	1.09 ± 0.029	1.103 ± 0.011	1.02 ± 0.017	1.064 ± 0.01
0.00051 µM	1.11 ± 0.044	1.09 ± 0.025	1.09 ± 0.059	1.01 ± 0.03	1.08 ± 0.04
0.00152 µM	1.11 ± 0.025	1.1 ± 0.019	1.12 ± 0.032	1.01 ± 0.017	1.09 ± 0.042
0.00457 µM	1.11 ± 0.016	1.09 ± 0.022	1.141 ± 0.011	1.02 ± 0.025	1.09 ± 0.04
0.01372 µM	1.08 ± 0.028	1.08 ± 0.024	1.13 ± 0.032	1.02 ± 0.037	1.03 ± 0.035
0.04115 µM	1.12 ± 0.051	1.086 ± 0.0098	1.12 ± 0.032	1.01 ± 0.013	0.979 ± 0.015
0.1235 µM	1.12 ± 0.033	1.08 ± 0.032	1.12 ± 0.042	0.992 ± 0.022	1.02 ± 0.031
0.3704 µM	1.13 ± 0.021	1.08 ± 0.03	1.08 ± 0.04	0.9359 ± 0.0071	0.994 ± 0.03
1.111 µM	1.15 ± 0.025	1.08 ± 0.015	0.976 ± 0.06	0.832 ± 0.032	0.914 ± 0.044
3.333 µM	0.769 ± 0.047	0.985 ± 0.044	0.347 ± 0.036	0.474 ± 0.032	0.535 ± 0.036
10 µM	0.0364 ± 0.0086	0.0233 ± 0.0027	0.00617 ± 0.00057	0.0093 ± 0.0018	-0.0076 ± 0.0039

Cc1nc(Nc2ncc(C(=O)Nc3c(C)cccc3Cl)s2)cc(N2CCN(CCO)CC2)n1 [Dasatinib]
relative viability
Details	HT1080	KHOS-NP	RD	RD-ES	VA-ES-BJ
0.00017 µM	1.03 ± 0.011	1.023 ± 0.0082	1.12 ± 0.095	0.989 ± 0.026	1.04 ± 0.054
0.00051 µM	1.05 ± 0.049	1.03 ± 0.015	1.12 ± 0.074	0.966 ± 0.03	1.04 ± 0.051
0.00152 µM	1.04 ± 0.025	1 ± 0.024	1.09 ± 0.032	0.966 ± 0.015	1.04 ± 0.067
0.00457 µM	1.01 ± 0.015	0.993 ± 0.04	1.02 ± 0.025	0.962 ± 0.013	0.996 ± 0.057
0.01372 µM	1.02 ± 0.0092	0.923 ± 0.034	0.953 ± 0.054	0.958 ± 0.023	0.856 ± 0.047
0.04115 µM	0.989 ± 0.027	0.872 ± 0.022	0.775 ± 0.03	0.949 ± 0.019	0.688 ± 0.013
0.1235 µM	0.924 ± 0.026	0.721 ± 0.044	0.536 ± 0.017	0.9274 ± 0.0062	0.502 ± 0.037
0.3704 µM	0.895 ± 0.029	0.525 ± 0.028	0.458 ± 0.032	0.918 ± 0.031	0.447 ± 0.0063
1.111 µM	0.907 ± 0.018	0.436 ± 0.015	0.426 ± 0.015	0.92 ± 0.049	0.413 ± 0.019
3.333 µM	0.873 ± 0.017	0.327 ± 0.014	0.366 ± 0.0042	0.759 ± 0.097	0.335 ± 0.038
10 µM	0.535 ± 0.046	0.237 ± 0.013	0.267 ± 0.0099	0.483 ± 0.024	0.246 ± 0.0048

COc1cc(OC)cc(N(CCNC(C)C)c2ccc3ncc(-c4cnn(C)c4)nc3c2)c1 [Erdafitinib]
relative viability
Details	HT1080	KHOS-NP	RD	RD-ES	VA-ES-BJ
0.00017 µM	1.06 ± 0.028	1.07 ± 0.015	1.05 ± 0.037	0.963 ± 0.04	1.08 ± 0.038
0.00051 µM	1.09 ± 0.049	1.06 ± 0.023	1.09 ± 0.032	0.971 ± 0.013	1.05 ± 0.015
0.00152 µM	1.05 ± 0.051	1.05 ± 0.021	1.08 ± 0.051	0.929 ± 0.025	1.06 ± 0.051
0.00457 µM	1.07 ± 0.029	1.06 ± 0.016	1.08 ± 0.032	0.96 ± 0.031	1.02 ± 0.045
0.01372 µM	1.02 ± 0.044	1.04 ± 0.035	1.09 ± 0.053	0.917 ± 0.022	1.04 ± 0.015
0.04115 µM	1.05 ± 0.038	1.04 ± 0.025	1.09 ± 0.072	0.873 ± 0.027	1.03 ± 0.025
0.1235 µM	1.08 ± 0.062	1.02 ± 0.054	1.13 ± 0.076	0.873 ± 0.043	1.06 ± 0.028
0.3704 µM	1.06 ± 0.065	1.01 ± 0.046	1.13 ± 0.053	0.861 ± 0.027	1.04 ± 0.03
1.111 µM	1.02 ± 0.093	0.999 ± 0.038	1.11 ± 0.052	0.783 ± 0.011	0.92 ± 0.05
3.333 µM	0.959 ± 0.029	0.943 ± 0.061	0.677 ± 0.013	0.5562 ± 0.0023	0.612 ± 0.021
10 µM	0.41 ± 0.024	0.638 ± 0.049	0.269 ± 0.028	0.148 ± 0.042	0.355 ± 0.012

Reference: the supplement of paper PMC10883282
